Measurements taken from ChEMBL document CHEMBL4507274 (2021).

Key:
[1] = molecular target: Dual specificity mitogen-activated protein kinase kinase 3 (Homo sapiens) (UniProt P46734); settings: Compound concentration 100.0 nM
[2] = molecular target: Insulin receptor (Homo sapiens) (UniProt P06213); settings: Compound concentration 100.0 nM
[3] = molecular target: 5-hydroxytryptamine receptor 2B (Homo sapiens) (UniProt P41595); settings: Compound concentration 10.0 uM
[4] = molecular target: Serine/threonine-protein kinase pim-1 (Homo sapiens) (UniProt P11309); settings: Compound concentration 100.0 nM
[5] = molecular target: T1, Serine/threonine-protein kinase Nek2 (Homo sapiens) (UniProt P51955); settings: Compound concentration 100.0 nM
T1 sequence (whole entry): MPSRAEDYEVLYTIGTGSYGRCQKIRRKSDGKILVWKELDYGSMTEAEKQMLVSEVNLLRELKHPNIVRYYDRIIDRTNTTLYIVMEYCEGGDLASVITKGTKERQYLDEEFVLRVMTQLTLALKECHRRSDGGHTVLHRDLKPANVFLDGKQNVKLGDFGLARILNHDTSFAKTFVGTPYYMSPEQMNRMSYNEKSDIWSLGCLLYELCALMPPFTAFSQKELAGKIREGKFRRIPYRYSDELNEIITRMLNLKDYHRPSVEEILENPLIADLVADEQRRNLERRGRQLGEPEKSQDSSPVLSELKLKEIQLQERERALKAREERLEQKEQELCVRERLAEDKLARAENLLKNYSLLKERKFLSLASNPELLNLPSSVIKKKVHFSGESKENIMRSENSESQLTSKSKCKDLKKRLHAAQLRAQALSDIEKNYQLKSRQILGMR

[6] = molecular target: Serine/threonine-protein kinase 17B (Homo sapiens) (UniProt O94768); settings: Compound concentration 100.0 nM
[7] = molecular target: T2, Tyrosine-protein kinase ZAP-70 (Homo sapiens) (UniProt P43403); settings: Compound concentration 100.0 nM
T2 sequence (whole entry): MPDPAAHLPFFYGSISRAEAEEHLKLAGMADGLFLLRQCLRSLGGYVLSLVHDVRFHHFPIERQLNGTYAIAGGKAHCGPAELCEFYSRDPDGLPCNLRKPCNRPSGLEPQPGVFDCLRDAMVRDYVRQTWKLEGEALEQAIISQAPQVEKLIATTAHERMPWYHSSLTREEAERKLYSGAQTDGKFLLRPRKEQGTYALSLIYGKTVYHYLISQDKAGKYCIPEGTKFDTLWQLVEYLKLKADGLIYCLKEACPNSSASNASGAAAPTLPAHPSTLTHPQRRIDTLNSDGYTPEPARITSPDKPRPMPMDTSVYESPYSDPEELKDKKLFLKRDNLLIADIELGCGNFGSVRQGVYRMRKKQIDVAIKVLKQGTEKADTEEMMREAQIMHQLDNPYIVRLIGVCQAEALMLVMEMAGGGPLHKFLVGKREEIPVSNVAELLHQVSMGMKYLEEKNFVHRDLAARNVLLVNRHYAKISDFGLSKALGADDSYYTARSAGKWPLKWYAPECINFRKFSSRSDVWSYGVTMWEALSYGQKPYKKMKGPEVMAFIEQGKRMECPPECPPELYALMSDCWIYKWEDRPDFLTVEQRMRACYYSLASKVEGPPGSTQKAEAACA

[8] = molecular target: Epithelial discoidin domain-containing receptor 1 (Homo sapiens) (UniProt Q08345); settings: Compound concentration 100.0 nM
[9] = molecular target: Transient receptor potential cation channel subfamily M member 6 (Homo sapiens) (UniProt Q9BX84); settings: Compound concentration 100.0 nM
[10] = molecular target: Serine/threonine-protein kinase MRCK alpha (Homo sapiens) (UniProt Q5VT25); settings: Compound concentration 100.0 nM
[11] = molecular target: Serine/threonine-protein kinase NLK (Homo sapiens) (UniProt Q9UBE8); settings: Compound concentration 100.0 nM
[12] = molecular target: Ephrin type-B receptor 3 (Homo sapiens) (UniProt P54753); settings: Compound concentration 100.0 nM
[13] = molecular target: Serine/threonine-protein kinase 24 (Homo sapiens) (UniProt Q9Y6E0); settings: Compound concentration 100.0 nM
[14] = test system: Mast/stem cell growth factor receptor Kit (Homo sapiens), P10721 [V559D]; settings: Compound concentration 100.0 nM
[15] = molecular target: G protein-coupled receptor kinase 4 (Homo sapiens) (UniProt P32298); settings: Compound concentration 100.0 nM
[16] = molecular target: Ribosomal protein S6 kinase alpha-5 (Homo sapiens) (UniProt O75582); settings: Compound concentration 100.0 nM
[17] = test system: Phosphatidylinositol 4,5-bisphosphate 3-kinase catalytic subunit alpha isoform (Homo sapiens), P42336 [E545A]; settings: Compound concentration 100.0 nM
[18] = molecular target: Ribosomal protein S6 kinase beta-1 (Homo sapiens) (UniProt P23443); settings: Compound concentration 100.0 nM
[19] = molecular target: Ephrin type-A receptor 3 (Homo sapiens) (UniProt P29320); settings: Compound concentration 100.0 nM
[20] = molecular target: Receptor-interacting serine/threonine-protein kinase 4 (Homo sapiens) (UniProt P57078); settings: Compound concentration 100.0 nM
[21] = molecular target: Vascular endothelial growth factor receptor 1 (Homo sapiens) (UniProt P17948); settings: Compound concentration 100.0 nM
[22] = molecular target: Serine/threonine-protein kinase ICK (Homo sapiens) (UniProt Q9UPZ9); settings: Compound concentration 100.0 nM
[23] = molecular target: Serine/threonine-protein kinase SBK1 (Homo sapiens) (UniProt Q52WX2); settings: Compound concentration 100.0 nM
[24] = molecular target: Serine/threonine-protein kinase PAK 2 (Homo sapiens) (UniProt Q13177); settings: Compound concentration 100.0 nM
[25] = molecular target: Phosphatidylinositol 3-kinase catalytic subunit type 3 (Homo sapiens) (UniProt Q8NEB9); settings: Compound concentration 100.0 nM
[26] = molecular target: Tyrosine-protein kinase ABL1 (Homo sapiens) (UniProt P00519); settings: Compound concentration 100.0 nM
[27] = molecular target: Casein kinase I isoform epsilon (Homo sapiens) (UniProt P49674); settings: Compound concentration 100.0 nM
Sequence of Casein kinase I isoform epsilon (Homo sapiens) (P49674 whole entry, looked up, canonical isoform): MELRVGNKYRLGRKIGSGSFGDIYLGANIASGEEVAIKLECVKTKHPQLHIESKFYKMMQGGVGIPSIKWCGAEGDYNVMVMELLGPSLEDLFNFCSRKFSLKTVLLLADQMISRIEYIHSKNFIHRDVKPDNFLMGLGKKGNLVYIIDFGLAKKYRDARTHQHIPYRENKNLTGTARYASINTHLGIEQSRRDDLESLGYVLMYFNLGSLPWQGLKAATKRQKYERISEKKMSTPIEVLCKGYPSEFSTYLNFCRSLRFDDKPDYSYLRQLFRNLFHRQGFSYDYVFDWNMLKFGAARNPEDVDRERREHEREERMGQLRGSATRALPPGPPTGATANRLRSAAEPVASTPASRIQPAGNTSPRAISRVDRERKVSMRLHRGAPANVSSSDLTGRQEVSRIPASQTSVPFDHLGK

Sequence of Transient receptor potential cation channel subfamily M member 6 (Homo sapiens) (Q9BX84 whole entry): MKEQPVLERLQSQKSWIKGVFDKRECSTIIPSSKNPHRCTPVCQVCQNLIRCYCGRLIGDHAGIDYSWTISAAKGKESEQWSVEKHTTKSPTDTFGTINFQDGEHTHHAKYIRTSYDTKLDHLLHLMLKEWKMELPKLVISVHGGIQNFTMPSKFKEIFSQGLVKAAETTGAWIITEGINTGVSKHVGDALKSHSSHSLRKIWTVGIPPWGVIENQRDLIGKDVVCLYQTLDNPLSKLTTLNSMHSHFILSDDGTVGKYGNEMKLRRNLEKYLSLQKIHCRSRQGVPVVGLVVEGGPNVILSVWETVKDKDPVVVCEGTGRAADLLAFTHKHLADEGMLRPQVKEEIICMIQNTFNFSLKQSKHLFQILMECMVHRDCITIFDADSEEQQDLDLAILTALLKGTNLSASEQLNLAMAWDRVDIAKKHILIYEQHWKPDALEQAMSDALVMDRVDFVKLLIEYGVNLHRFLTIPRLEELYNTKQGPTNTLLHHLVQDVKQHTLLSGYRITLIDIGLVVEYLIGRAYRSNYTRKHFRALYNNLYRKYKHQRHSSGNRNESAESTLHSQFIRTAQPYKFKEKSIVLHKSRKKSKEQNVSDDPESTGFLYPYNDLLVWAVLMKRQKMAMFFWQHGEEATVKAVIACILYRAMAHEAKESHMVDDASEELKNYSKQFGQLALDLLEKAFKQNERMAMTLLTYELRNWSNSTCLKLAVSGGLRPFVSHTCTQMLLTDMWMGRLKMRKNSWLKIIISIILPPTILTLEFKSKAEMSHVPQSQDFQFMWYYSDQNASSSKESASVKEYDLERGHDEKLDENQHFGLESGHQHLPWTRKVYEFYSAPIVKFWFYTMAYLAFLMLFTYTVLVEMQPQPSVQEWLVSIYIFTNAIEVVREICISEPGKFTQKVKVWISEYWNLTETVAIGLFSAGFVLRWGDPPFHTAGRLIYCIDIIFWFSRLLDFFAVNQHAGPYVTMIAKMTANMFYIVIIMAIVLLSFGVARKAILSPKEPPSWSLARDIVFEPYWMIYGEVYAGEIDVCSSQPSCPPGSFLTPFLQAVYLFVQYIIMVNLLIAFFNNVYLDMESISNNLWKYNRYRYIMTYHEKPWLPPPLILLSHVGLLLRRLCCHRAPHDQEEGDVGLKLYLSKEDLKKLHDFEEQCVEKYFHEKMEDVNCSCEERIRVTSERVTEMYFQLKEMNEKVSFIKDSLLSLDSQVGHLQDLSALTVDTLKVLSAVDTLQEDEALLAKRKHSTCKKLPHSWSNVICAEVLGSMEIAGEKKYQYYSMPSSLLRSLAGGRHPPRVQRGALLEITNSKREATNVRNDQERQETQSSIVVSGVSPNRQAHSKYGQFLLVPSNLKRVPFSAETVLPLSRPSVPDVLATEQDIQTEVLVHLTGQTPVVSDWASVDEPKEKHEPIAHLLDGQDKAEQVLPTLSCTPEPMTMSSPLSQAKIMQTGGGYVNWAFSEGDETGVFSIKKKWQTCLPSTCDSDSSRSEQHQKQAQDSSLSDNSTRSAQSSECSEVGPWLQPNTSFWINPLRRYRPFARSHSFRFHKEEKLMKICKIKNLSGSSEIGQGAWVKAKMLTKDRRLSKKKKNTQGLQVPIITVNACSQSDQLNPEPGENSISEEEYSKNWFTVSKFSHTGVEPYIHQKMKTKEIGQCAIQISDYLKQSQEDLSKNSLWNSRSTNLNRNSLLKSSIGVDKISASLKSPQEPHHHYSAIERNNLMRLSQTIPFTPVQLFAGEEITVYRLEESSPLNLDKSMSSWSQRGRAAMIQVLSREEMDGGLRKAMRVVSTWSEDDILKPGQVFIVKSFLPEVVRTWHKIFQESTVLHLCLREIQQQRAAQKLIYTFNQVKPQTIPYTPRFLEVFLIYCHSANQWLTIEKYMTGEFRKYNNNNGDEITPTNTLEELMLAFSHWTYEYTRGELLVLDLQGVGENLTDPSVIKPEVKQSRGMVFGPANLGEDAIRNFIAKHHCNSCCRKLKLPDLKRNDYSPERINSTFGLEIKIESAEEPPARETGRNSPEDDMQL
Sequence of Epithelial discoidin domain-containing receptor 1 (Homo sapiens) (Q08345 whole entry, the tested form may be a part): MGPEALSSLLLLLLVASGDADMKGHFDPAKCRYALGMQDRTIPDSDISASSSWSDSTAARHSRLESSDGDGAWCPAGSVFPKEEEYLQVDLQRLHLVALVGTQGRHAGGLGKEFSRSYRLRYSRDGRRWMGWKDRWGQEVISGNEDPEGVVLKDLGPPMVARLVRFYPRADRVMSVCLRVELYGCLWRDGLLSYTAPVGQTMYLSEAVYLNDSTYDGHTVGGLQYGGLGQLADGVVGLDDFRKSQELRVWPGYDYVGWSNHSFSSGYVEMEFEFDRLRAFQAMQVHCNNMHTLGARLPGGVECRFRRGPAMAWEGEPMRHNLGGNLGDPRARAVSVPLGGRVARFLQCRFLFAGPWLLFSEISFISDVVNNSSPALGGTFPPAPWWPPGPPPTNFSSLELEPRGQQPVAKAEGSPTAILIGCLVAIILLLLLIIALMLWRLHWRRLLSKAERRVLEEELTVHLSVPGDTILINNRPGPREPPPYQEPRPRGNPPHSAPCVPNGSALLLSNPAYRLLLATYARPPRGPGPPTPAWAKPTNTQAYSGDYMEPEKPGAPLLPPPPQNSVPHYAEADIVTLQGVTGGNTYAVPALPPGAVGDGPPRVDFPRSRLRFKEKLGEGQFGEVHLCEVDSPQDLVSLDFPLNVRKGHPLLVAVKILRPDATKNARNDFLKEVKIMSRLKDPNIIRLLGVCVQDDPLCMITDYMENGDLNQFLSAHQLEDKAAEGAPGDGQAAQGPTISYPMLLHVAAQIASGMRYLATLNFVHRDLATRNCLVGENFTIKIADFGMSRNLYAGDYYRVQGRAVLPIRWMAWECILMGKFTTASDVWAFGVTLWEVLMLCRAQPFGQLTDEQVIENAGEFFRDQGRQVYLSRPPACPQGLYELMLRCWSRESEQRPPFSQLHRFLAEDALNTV
Sequence of Insulin receptor (Homo sapiens) (P06213 28-758 limits assumed): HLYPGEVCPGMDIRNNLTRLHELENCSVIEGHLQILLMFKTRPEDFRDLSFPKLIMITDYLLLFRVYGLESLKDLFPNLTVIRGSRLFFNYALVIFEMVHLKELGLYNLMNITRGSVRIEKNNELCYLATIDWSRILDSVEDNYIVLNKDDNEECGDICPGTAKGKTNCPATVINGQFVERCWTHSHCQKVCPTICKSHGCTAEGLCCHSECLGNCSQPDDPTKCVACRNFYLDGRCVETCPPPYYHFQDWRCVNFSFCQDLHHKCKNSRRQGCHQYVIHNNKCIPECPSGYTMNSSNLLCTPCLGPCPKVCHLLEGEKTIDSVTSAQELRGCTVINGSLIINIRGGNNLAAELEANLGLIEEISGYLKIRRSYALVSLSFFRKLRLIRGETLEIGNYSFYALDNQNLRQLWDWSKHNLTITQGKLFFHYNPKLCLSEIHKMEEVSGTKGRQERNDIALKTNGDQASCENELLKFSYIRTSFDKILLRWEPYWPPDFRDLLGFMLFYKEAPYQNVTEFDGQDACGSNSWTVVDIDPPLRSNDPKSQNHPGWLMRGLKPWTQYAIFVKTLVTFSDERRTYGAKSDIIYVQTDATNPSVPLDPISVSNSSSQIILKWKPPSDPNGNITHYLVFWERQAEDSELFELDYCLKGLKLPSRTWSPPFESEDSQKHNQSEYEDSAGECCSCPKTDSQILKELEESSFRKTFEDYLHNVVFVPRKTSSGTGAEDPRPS
Sequence of Insulin receptor (Homo sapiens) (P06213 763-1382 limits assumed): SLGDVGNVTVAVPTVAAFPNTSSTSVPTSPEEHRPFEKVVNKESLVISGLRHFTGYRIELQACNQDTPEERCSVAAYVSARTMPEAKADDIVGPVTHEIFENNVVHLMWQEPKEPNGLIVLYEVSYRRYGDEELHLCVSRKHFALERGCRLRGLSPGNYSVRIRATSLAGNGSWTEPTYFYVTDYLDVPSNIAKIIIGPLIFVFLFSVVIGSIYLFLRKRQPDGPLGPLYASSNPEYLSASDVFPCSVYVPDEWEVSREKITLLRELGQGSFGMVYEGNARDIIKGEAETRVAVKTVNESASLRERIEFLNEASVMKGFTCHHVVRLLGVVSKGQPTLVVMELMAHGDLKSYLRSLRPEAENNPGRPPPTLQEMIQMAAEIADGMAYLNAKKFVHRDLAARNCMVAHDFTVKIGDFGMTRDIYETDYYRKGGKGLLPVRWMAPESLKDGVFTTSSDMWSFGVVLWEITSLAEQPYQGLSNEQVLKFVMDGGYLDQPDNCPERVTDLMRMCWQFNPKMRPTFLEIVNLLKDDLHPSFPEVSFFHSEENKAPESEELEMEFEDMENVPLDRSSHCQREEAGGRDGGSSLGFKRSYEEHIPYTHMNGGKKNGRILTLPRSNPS
Sequence of Serine/threonine-protein kinase 17B (Homo sapiens) (O94768 whole entry): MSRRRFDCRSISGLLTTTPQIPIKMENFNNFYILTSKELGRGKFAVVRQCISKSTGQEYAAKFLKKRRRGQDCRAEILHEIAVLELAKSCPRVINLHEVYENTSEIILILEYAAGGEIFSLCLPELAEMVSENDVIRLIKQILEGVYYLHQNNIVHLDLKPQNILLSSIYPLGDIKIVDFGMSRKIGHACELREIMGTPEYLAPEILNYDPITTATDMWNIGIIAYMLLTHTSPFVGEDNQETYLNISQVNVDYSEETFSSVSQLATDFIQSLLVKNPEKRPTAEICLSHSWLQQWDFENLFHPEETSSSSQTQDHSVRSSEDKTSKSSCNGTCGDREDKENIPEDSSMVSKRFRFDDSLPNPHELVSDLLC

Cc1c[nH]c2nccc(Oc3c(F)cc(Nc4cc(Cl)nc(N)n4)cc3F)c12 [BAY-549]
inactive: residual activity [1] 100% | residual activity [2] 80% | inhibition [3] 10.4% | residual activity [4] 100% | residual activity [5] 97% | residual activity [6] 100% | residual activity [7] 100% | residual activity [8] 100% | residual activity [9] 83% | residual activity [10] 98% | residual activity [11] 100% | residual activity [12] 100% | residual activity [13] 100% | residual activity [14] 90% | residual activity [15] 100% | residual activity [16] 93% | residual activity [17] 88% | residual activity [18] 85% | residual activity [19] 97% | residual activity [20] 84% | residual activity [21] 100% | residual activity [22] 79% | residual activity [23] 94% | residual activity [24] 99% | residual activity [25] 67% | residual activity [26] 89% | residual activity [27] 64%

Cn1cc(Cl)c2c(Oc3c(F)cc(Nc4cc(Cl)nc(N)n4)cc3F)ccnc21 [BAY-4900]
inactive: residual activity [1] 94% | residual activity [2] 90% | inhibition [3] 17.3% | residual activity [4] 100% | residual activity [5] 100% | residual activity [6] 84% | residual activity [7] 100% | residual activity [8] 100% | residual activity [9] 77% | residual activity [10] 84% | residual activity [11] 100% | residual activity [12] 100% | residual activity [13] 100% | residual activity [14] 96% | residual activity [15] 100% | residual activity [16] 100% | residual activity [17] 88% | residual activity [18] 84% | residual activity [19] 83% | residual activity [20] 100% | residual activity [21] 100% | residual activity [22] 100% | residual activity [23] 97% | residual activity [24] 100% | residual activity [25] 75% | residual activity [26] 89% | residual activity [27] 98%
